According to US6995178B2, “Insecticidal anthranilamides” (E. I. du Pont de Nemours and Company, priority 2000, dated 2006):

melting point: 216 to 217 °C
Compound: Cc1cccc(C(=O)NC(C)C)c1NC(=O)c1cnc(C(F)(F)F)nc1C [Example 5, 4-Methyl-N-[2-methyl-6-[[(1-methylethyl)amino]carbonyl]phenyl]-2-(trifluoromethyl)-5-pyrimidinecarboxamide]
